The text below walks through data of patent US10407422B2, “Triazolopyridine inhibitors of myeloperoxidase” (priority 2015, dated 2019).

The target of assay [1] is T1, myeloperoxidase (MPO) (Homo sapiens (Human), UniProt P05164). Kind of assay: MPO chlorination assay (APF assay). It is filed as biochemical. Conditions: potency range class. The method, boiled down: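 Human MPO (200 pM) preincubated 10 min at room temperature with inhibitor and 120 mM NaCl in 100 mM KPi pH 7.4. Reaction started with APF plus 10 μM H2O2, and hypochlorite-generated fluorescein read kinetically (ex 485/em 535 nm) for 3 min. IC50 from linear-phase slopes fitted to a four-parameter equation.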
T1 sequence (P05164 49-745): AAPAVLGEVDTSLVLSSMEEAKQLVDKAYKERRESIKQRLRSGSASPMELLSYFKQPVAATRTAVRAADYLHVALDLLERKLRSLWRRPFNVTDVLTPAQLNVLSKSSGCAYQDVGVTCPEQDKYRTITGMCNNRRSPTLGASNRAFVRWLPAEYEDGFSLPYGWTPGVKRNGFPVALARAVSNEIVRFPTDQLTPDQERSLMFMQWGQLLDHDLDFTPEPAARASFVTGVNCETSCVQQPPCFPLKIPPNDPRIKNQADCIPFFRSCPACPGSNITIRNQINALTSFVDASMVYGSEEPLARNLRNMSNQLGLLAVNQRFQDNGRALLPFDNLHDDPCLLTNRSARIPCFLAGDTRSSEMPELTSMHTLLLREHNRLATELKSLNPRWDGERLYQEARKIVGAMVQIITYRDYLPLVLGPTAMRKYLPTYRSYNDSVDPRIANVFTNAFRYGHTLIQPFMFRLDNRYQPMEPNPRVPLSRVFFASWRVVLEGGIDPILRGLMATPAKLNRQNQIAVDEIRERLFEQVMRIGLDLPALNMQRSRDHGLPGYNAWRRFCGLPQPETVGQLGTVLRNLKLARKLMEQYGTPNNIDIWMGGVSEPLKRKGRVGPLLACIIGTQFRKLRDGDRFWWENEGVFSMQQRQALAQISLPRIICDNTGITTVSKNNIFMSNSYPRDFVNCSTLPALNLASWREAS

The target in assay [2] is T1, myeloperoxidase (MPO). Put plainly: MPO peroxidation assay (Amplex Red assay). Type of assay: biochemical. As to conditions: potency range class. The procedure, abridged:
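Human MPO at 200 pM with 40 nM H2O2 preincubated 10 min at room temperature with inhibitor in 100 mM KPi pH 7.4. Reaction started with Amplex Red mixture (200 μM Amplex Red, 10 mM H2O2); resorufin fluorescence (Ex 535, Em 590 nm) read kinetically for 15 min. IC50 fitted from slopes over 180-540 s.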

Take `Nc1cc(Cc2cnn(Cc3cccc(Oc4cccc5c4CNCC5)c3)c2)c2nn[nH]c2n1` [Example 237, 7-[(1-{[3-(1,2,3,4-Tetrahydroisoquinolin-8-yloxy)phenyl]methyl}-1H-pyrazol-4-yl)methyl]-3H-[1,2,3]triazolo[4,5-b]pyridin-5-amine]: the concentration for half-maximal inhibition (IC50) in assay [1] and in assay [2] was 1 to 100 nM in each case.
As for `Nc1cc(Cc2cnn(Cc3cccc(Oc4cccc(C5CCCN5)c4)c3)c2)c2nn[nH]c2n1` (stereo not drawn) [Example 238, 7-{[1-({3-[3-(Pyrrolidin-2-yl)phenoxy]phenyl}methyl)-1H-pyrazol-4-yl]methyl}-3H-[1,2,3]triazolo[4,5-b]pyridin-5-amine], the IC50 in assay [1] and in assay [2] was 1 to 100 nM throughout.
Turning to `Nc1cc(Cc2cnn(Cc3cccc(O[C@@H]4CCNC4)c3)c2)c2nn[nH]c2n1` [Example 239, 7-{[1-({3-[(3R)-Pyrrolidin-3-yloxy]phenyl}methyl)-1H-pyrazol-4-yl]methyl}-3H-[1,2,3]triazolo[4,5-b]pyridin-5-amine], the concentration for half-maximal inhibition (IC50) in assay [1] and in assay [2] was 1 to 100 nM in each case.
As for `Nc1cc(Cc2cnn(Cc3cccc(O[C@H]4CCNC4)c3)c2)c2nn[nH]c2n1` [Example 240, 7-{[1-({3-[(3S)-Pyrrolidin-3-yloxy]phenyl}methyl)-1H-pyrazol-4-yl]methyl}-3H-[1,2,3]triazolo[4,5-b]pyridin-5-amine], the IC50 in assay [1] and in assay [2] was 1 to 100 nM each time.
Regarding `CN1CC[C@@H](Oc2cccc(Cn3cc(Cc4cc(N)nc5[nH]nnc45)cn3)c2)C1` [Example 241, 7-({1-[(3-{[(3R)-1-Methylpyrrolidin-3-yl]oxy}phenyl)methyl]-1H-pyrazol-4-yl}methyl)-3H-[1,2,3]triazolo[4,5-b]pyridin-5-amine], the 50% inhibitory concentration (IC50) in assay [1] is 101 to 999 nM; in assay [2], 1 to 100 nM.
On to `Nc1cc(Cc2cnn(Cc3cccc(OC[C@@H]4CCCN4)c3)c2)c2nn[nH]c2n1` [Example 242, 7-{[1-({3-[(2S)-Pyrrolidin-2-ylmethoxy]phenyl}methyl)-1H-pyrazol-4-yl]methyl}-3H-[1,2,3]triazolo[4,5-b]pyridin-5-amine], for which the IC50 in assay [1] and in assay [2] was 1 to 100 nM in each case.
Regarding `Nc1cc(Cc2cnn(Cc3cccc(OC[C@H]4CCCN4)c3)c2)c2nn[nH]c2n1` [Example 243, 7-{[1-({3-[(2R)-Pyrrolidin-2-ylmethoxy]phenyl}methyl)-1H-pyrazol-4-yl]methyl}-3H-[1,2,3]triazolo[4,5-b]pyridin-5-amine], the IC50 in assay [1] and in assay [2] was 1 to 100 nM throughout.
`Nc1cc(Cc2cnn(Cc3cccc(OC[C@@H]4CCNC4)c3)c2)c2nn[nH]c2n1` [Example 244]: the 50% inhibitory concentration (IC50) in assay [1] and in assay [2] was 1 to 100 nM in each case.
As to `COC(=O)[C@@H]1C[C@@H](Oc2cccc(Cn3cc(Cc4cc(N)nc5[nH]nnc45)cn3)c2)CN1` [Example 245, Methyl (2S,4R)-4-(3-{[4-({5-amino-3H-[1,2,3]triazolo[4,5-b]pyridin-7-yl}methyl)-1H-pyrazol-1-yl]methyl}phenoxy)pyrrolidine-2-carboxylate], the concentration for half-maximal inhibition (IC50) in assay [1] and in assay [2] was 101 to 999 nM throughout.
On to `Cc1nnc([C@@H]2C[C@@H](Oc3cccc(Cn4cc(Cc5cc(N)nc6[nH]nnc56)cn4)c3)CN2)o1` [Example 246, 7-({1-[(3-{[(3R,5S)-5-(5-Methyl-1,3,4-oxadiazol-2-yl)pyrrolidin-3-yl]oxy}phenyl)methyl]-1H-pyrazol-4-yl}methyl)-3H-[1,2,3]triazolo[4,5-b]pyridin-5-amine], for which the IC50 in assay [1] and in assay [2] was 1000 to 10000 nM in each case.
Turning to `CN(C)C(=O)[C@@H]1C[C@@H](Oc2cccc(Cn3cc(Cc4cc(N)nc5[nH]nnc45)cn3)c2)CN1` [Example 247, (2S,4R)-4-(3-{[4-({5-Amino-3H-[1,2,3]triazolo[4,5-b]pyridin-7-yl}methyl)-1H-pyrazol-1-yl]methyl}phenoxy)-N,N-dimethylpyrrolidine-2-carboxamide], the IC50 in assay [1] and in assay [2] was 101 to 999 nM each time.
With `Nc1cc(Cc2cnn(Cc3cccc(O[C@H]4CN[C@H](CO)C4)c3)c2)c2nn[nH]c2n1` [Example 248, [(2S,4R)-4-(3-{[4-({5-Amino-3H-[1,2,3]triazolo[4,5-b]pyridin-7-yl}methyl)-1H-pyrazol-1-yl]methyl}phenoxy)pyrrolidin-2-yl]methanol], the IC50 in assay [1] was in the range of 101 to 999 nM; in assay [2] it was 1 to 100 nM.
Consider `NCc1cccc(Cn2cc(Cc3cc(N)nc4[nH]nnc34)cn2)c1` [Example 249, 7-[(1-{[3-(Aminomethyl)phenyl]methyl}-1H-pyrazol-4-yl)methyl]-3H-[1,2,3]triazolo[4,5-b]pyridin-5-amine], for which the half-maximal inhibitory concentration (IC50) in assay [1] fell in the range of 101 to 999 nM; in assay [2], 1 to 100 nM.
Consider `NCc1ccc(Cn2cc(Cc3cc(N)nc4[nH]nnc34)cn2)cc1` [Example 250, 7-[(1-{[4-(Aminomethyl)phenyl]methyl}-1H-pyrazol-4-yl)methyl]-3H-[1,2,3]triazolo[4,5-b]pyridin-5-amine], for which the half-inhibitory concentration (IC50) in assay [1] and in assay [2] was 1 to 100 nM throughout.
In the case of `CN(C)CC(=O)NCc1ccc(Cn2cc(Cc3cc(N)nc4[nH]nnc34)cn2)cc1` [Example 251, N-[(4-{[4-({5-Amino-3H-[1,2,3]triazolo[4,5-b]pyridin-7-yl}methyl)-1H-pyrazol-1-yl]methyl}phenyl)methyl]-2-(dimethylamino)acetamide], the half-inhibitory concentration (IC50) lay in the range of 101 to 999 nM in assay [1] and 1 to 100 nM in assay [2].
Take `CN1CCN(CC(=O)NCc2ccc(Cn3cc(Cc4cc(N)nc5[nH]nnc45)cn3)cc2)CC1` [Example 252, N-[(4-{[4-({5-Amino-3H-[1,2,3]triazolo[4,5-b]pyridin-7-yl}methyl)-1H-pyrazol-1-yl]methyl}phenyl)methyl]-2-(4-methylpiperazin-1-yl)acetamide]: the concentration for half-maximal inhibition (IC50) in assay [1] and in assay [2] was 101 to 999 nM each time.
Consider `Nc1cc(Cc2cnn(Cc3ccc(CNC(=O)CN4CCCC4)cc3)c2)c2nn[nH]c2n1` [Example 253, N-[(4-{[4-({5-Amino-3H-[1,2,3]triazolo[4,5-b]pyridin-7-yl}methyl)-1H-pyrazol-1-yl]methyl}phenyl)methyl]-2-(pyrrolidin-1-yl)acetamide], for which the IC50 in assay [1] and in assay [2] was 101 to 999 nM in each case.
With `Nc1cc(Cc2cnn(Cc3cccc(CN4CCCC4)c3)c2)c2nn[nH]c2n1` [Example 254, 7-[(1-{[3-(Pyrrolidin-1-ylmethyl)phenyl]methyl}-1H-pyrazol-4-yl)methyl]-3H-[1,2,3]triazolo[4,5-b]pyridin-5-amine], the IC50 is 101 to 999 nM in assay [1] and 1 to 100 nM in assay [2].
On the same counts, the results for `CN(C)Cc1cccc(Cn2cc(Cc3cc(N)nc4[nH]nnc34)cn2)c1` [Example 255, 7-{[1-({3-[(Dimethylamino)methyl]phenyl}methyl)-1H-pyrazol-4-yl]methyl}-3H-[1,2,3]triazolo[4,5-b]pyridin-5-amine] are 1 to 100 nM and 1 to 100 nM.
`Nc1cc(Cc2cnn(Cc3cccc(CN4CCOCC4)c3)c2)c2nn[nH]c2n1` [Example 256, 7-[(1-{[3-(Morpholin-4-ylmethyl)phenyl]methyl}-1H-pyrazol-4-yl)methyl]-3H-[1,2,3]triazolo[4,5-b]pyridin-5-amine]: the IC50 in assay [1] and in assay [2] was 101 to 999 nM in each case.
As for `Nc1cc(Cc2cnn(Cc3cccc([C@@H]4CNCCO4)c3)c2)c2nn[nH]c2n1` [Example 257, 7-{[1-({3-[(2R)-Morpholin-2-yl]phenyl}methyl)-1H-pyrazol-4-yl]methyl}-3H-[1,2,3]triazolo[4,5-b]pyridin-5-amine], the IC50 in assay [1] and in assay [2] was 1 to 100 nM throughout.
Regarding `NCCN1Cc2ccc(Cn3cc(Cc4cc(N)nc5[nH]nnc45)cn3)cc2C1=O` [Example 258, 6-{[4-({5-Amino-3H-[1,2,3]triazolo[4,5-b]pyridin-7-yl}methyl)-1H-pyrazol-1-yl]methyl}-2-(2-aminoethyl)-2,3-dihydro-1H-isoindol-1-one], the IC50 in assay [1] and in assay [2] was 101 to 999 nM each time.
Consider `Nc1cc(Cc2cnn(Cc3ccc4c(c3)C(=O)NCC4)c2)c2nn[nH]c2n1` [Example 259, 7-{[4-({5-Amino-3H-[1,2,3]triazolo[4,5-b]pyridin-7-yl}methyl)-1H-pyrazol-1-yl]methyl}-1,2,3,4-tetrahydroisoquinolin-1-one], for which the values for the half-inhibitory concentration (IC50) in assay [1] and in assay [2] were 101 to 999 nM and 1 to 100 nM, respectively.
For the compound `Nc1cc(Cc2cnn(Cc3ccc4c(c3)C(c3ccccc3)CNC4)c2)c2nn[nH]c2n1` (stereo not drawn) [Example 261, 7-({1-[(4-Phenyl-1,2,3,4-tetrahydroisoquinolin-6-yl)methyl]-1H-pyrazol-4-yl}methyl)-3H-[1,2,3]triazolo[4,5-b]pyridin-5-amine], the IC50 in assay [1] and in assay [2] was 1 to 100 nM in each case.
In the case of `Nc1cc(Cc2cnn(Cc3ccc4c(c3)C(C(F)(F)F)NCC4)c2)c2nn[nH]c2n1` (stereo not drawn) [Example 262, 7-[(1-{[1-(Trifluoromethyl)-1,2,3,4-tetrahydroisoquinolin-7-yl]methyl}-1H-pyrazol-4-yl)methyl]-3H-[1,2,3]triazolo[4,5-b]pyridin-5-amine], the IC50 in assay [1] and in assay [2] was 101 to 999 nM throughout.
Regarding `Nc1cc(Cc2cnn(Cc3ccccc3OCc3ccccc3)c2)c2nn[nH]c2n1` [Example 263, 7-[(1-{[2-(Benzyloxy)phenyl]methyl}-1H-pyrazol-4-yl)methyl]-3H-[1,2,3]triazolo[4,5-b]pyridin-5-amine], the IC50 is 101 to 999 nM in assay [1] and 1 to 100 nM in assay [2].
Take `Nc1cc(Cc2cnn(Cc3ccccc3Oc3ccccc3)c2)c2nn[nH]c2n1` [Example 264, 7-({1-[(2-Phenoxyphenyl)methyl]-1H-pyrazol-4-yl}methyl)-3H-[1,2,3]triazolo[4,5-b]pyridin-5-amine]: the 50% inhibitory concentration (IC50) lay within 101 to 999 nM in assay [1] and 1 to 100 nM in assay [2].
